Like-named read-outs stand apart in the source and are kept apart here.
Columns and labels:
[1] = biological target: T1, GST-tagged human ROCK1 catalytic domain 1-477 (Homo sapiens, UniProt Q13464); test: Isolated Enzyme Assay, ROCK1 (LANCE Ultra ULight-CREBtide FRET); assay type: biochemical; conditions: 30 μM highest concentration tested, read-out: Results from Isolated Enzyme Assay IC50 (μM) ROCK1
T1 construct: human ROCK1 catalytic domain 1-477 from Carna Biosciences (cat #01-109); purchased Carna Biosciences 01-109; host or cells: baculovirus expression system
Protocol: (§1) Exemplary compounds were tested for ability to inhibit Rho-associated protein kinase isoform 1 (ROCK1) and Rho-associated protein kinase isoform 2 (ROCK2). Assay procedures and results are described below.
(§2) Part I—Procedure for Determining ROCK Inhibition Ability of Test Compounds Using an Isolated Enzyme Assay
(§3) Protein constructs were purified from a baculovirus expression system. The peptide substrate was fluorescent LANCE® Ultra ULight-CREBtide: […] (PerkinElmer, # TRF0107-D). Kinase reactions were carried out in a 10 μL volume in 384-well plates: 50 nM ULight-CREBtide substrate, 2 nM constitutively active ROCK1 or ROCK2 kinase, and test compound in DMSO (or DMSO only for controls) were diluted into assay buffer containing 50 mM Tris-HCl (pH=7.5), 10 mM MgCl2, 1 mM EGTA, 0.01% Tween-20, and 2 mM DTT such that the final concentration of DMSO was 0.5%. After a 90 minute incubation at room temperature on a shaker table, the kinase reaction was stopped by addition of 10 mM EDTA, and phosphorylation of the substrate was detected by adding 1 nM LANCE® Ultra Europium-anti-phospho-CREB (ser133) antibody (PerkinElmer, # TRF0200-D) and incubating for 60 minutes on a shaker at room temperature. The fluorescence resonance energy transfer (FRET) signals were read and analyzed on an Envision™ 2103 Multilabel Reader (Perkin Elmer). The concentration of test compound required to inhibit substrate phosphorylation by 50% (the IC50) was calculated by non-linear regression using GraphPad PRIZM.

[2] = biological target: T2, GST-tagged human ROCK2 catalytic domain 1-553 (Homo sapiens, UniProt O75116); test: Isolated Enzyme Assay, ROCK2 (LANCE Ultra ULight-CREBtide FRET); assay type: biochemical; conditions: 30 μM highest concentration tested, read-out: Results from Isolated Enzyme Assay IC50 (μM) ROCK2
T2 construct: GST-tagged human ROCK2 catalytic domain 1-553 from Carna Biosciences (Cat #01-110); purchased Carna Biosciences 01-110; host or cells: baculovirus expression system
Protocol: as §1, §2, §3

ROCK1 = biological target: T3, ROCK1 (Homo sapiens, UniProt Q13464); test: Cell-Based Assay, ROCK1 (HAP1 knockout cells, phospho-MYPT1 Thr853 ELISA); conditions: read-out: Results from Cell-Based Assay IC50 (μM) ROCK1
T3 construct: endogenous in cells; host or cells: HAP1 knockout cells
Protocol: (§4) Part II—Procedure for Determining ROCK Inhibition Ability of Test Compounds Using a Cell-Base Assay
(§5) The Cell-Based Assay for determining ROCK inhibition ability of test compounds utilized a genetically modified HAP1 cell line engineered to eliminate expression of either ROCK1 or ROCK2. In the procedure, HAP1 knockout cells are grown in Iscove's Modified Dulbecco's Medium that is additionally supplemented with 10% fetal bovine and 1x antibiotic-antimycotic mixture. Cells are plated in 96 well tissue culture plates at 1×10^5 cells/well (100 μL, of cells at 1×10^6/mL). Test compounds are solubilized in DMSO and diluted into the same media used to grow the cells. A 100 μL, aliquot of each compound dilution in media is added to each well containing the HAP1 cells and incubated at 37° C. for 30 minutes. Following compound incubation, the cells are pelleted by centrifugation at 1800 rpm for 5 minutes at 4° C. Media is removed from the cell pellet and the cells lysed and de-salted. An 80 μL, aliquot of each cell lysate is added to a single well of a 96-well high binding ELISA plate which has been pre-coated with a MYPT1 capture antibody and incubated at 4° C. overnight. The following day the ELISA plate is washed 4× with 0.05% Tween-20 in PBS. After washing, an anti-phospho-MYPT1 (Thr853) antibody is added and allowed to bind for 1 hour at room temperature. The wash step is repeated, and then an anti-rabbit HRP detection antibody is added and allowed to incubate at room temperature for 1 hour. The wash step is then repeated and 100 μL/well 1-Step™ Ultra TMB substrate is added to the ELISA plate and allowed to develop for approximately 5 minutes. The reaction is stopped by addition of H2SO4. Absorbance is read at 450 OD. Data is analyzed using GraphPad Prism software to calculate the 50% inhibitory concentration of test compound (IC50).

ROCK2 = biological target: T4, ROCK2 (Homo sapiens, UniProt O75116); test: Cell-Based Assay, ROCK2 (HAP1 knockout cells, phospho-MYPT1 Thr853 ELISA); conditions: read-out: Results from Cell-Based Assay IC50 (μM) ROCK2
T4 construct: endogenous in cells; host or cells: HAP1 knockout cells
Protocol: as §4, §5

[3] = phospho-MYPT1, 30 μM highest concentration tested

T2 sequence (O75116 1-553): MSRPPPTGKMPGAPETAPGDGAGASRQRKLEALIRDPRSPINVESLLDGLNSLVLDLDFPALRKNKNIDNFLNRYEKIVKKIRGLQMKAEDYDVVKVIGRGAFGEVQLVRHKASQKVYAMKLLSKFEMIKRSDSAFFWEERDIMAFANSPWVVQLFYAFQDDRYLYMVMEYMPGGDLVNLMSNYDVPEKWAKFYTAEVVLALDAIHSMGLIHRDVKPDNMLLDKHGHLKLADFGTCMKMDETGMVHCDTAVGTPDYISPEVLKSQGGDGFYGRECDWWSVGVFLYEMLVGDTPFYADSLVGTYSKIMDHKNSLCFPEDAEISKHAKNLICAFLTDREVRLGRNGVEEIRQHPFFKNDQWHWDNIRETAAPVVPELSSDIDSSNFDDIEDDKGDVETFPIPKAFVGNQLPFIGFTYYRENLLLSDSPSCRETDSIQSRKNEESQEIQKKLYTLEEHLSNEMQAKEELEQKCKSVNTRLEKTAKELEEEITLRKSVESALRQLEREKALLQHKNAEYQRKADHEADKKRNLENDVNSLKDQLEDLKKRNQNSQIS
T4 sequence (O75116 whole entry): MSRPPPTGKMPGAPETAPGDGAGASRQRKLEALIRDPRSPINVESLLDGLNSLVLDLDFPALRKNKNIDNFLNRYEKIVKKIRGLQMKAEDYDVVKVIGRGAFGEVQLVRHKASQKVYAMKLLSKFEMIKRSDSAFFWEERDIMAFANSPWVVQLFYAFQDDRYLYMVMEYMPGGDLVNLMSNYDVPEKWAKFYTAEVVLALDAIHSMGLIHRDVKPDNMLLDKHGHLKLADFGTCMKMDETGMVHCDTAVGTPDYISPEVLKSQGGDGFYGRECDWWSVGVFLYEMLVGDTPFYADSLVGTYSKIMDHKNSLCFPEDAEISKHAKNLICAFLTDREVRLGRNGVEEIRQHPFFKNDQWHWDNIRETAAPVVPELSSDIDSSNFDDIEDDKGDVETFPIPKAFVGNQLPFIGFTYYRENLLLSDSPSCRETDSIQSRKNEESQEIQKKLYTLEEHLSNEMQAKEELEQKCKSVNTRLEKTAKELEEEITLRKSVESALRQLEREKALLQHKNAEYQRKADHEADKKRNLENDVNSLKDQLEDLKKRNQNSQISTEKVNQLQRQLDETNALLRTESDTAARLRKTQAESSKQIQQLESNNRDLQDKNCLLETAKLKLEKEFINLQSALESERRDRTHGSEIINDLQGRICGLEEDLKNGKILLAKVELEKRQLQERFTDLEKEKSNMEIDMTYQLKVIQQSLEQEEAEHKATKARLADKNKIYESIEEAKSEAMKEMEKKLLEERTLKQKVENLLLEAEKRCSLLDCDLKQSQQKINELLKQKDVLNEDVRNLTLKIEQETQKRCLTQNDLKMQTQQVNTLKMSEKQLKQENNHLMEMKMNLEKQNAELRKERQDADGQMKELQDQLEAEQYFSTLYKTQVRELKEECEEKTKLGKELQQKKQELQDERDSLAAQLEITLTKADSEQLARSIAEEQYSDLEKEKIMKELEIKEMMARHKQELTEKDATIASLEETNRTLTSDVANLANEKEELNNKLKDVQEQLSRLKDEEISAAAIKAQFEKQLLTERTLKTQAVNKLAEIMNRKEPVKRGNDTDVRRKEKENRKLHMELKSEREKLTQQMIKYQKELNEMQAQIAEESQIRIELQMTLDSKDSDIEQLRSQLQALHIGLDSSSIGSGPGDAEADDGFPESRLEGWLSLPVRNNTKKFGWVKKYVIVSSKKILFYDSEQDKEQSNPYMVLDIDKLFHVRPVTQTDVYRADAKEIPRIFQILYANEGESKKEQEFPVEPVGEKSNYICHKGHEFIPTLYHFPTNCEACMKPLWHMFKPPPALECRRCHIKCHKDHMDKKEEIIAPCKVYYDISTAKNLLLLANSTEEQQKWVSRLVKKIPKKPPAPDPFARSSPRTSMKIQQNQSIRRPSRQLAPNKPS
T3 sequence (Q13464 whole entry): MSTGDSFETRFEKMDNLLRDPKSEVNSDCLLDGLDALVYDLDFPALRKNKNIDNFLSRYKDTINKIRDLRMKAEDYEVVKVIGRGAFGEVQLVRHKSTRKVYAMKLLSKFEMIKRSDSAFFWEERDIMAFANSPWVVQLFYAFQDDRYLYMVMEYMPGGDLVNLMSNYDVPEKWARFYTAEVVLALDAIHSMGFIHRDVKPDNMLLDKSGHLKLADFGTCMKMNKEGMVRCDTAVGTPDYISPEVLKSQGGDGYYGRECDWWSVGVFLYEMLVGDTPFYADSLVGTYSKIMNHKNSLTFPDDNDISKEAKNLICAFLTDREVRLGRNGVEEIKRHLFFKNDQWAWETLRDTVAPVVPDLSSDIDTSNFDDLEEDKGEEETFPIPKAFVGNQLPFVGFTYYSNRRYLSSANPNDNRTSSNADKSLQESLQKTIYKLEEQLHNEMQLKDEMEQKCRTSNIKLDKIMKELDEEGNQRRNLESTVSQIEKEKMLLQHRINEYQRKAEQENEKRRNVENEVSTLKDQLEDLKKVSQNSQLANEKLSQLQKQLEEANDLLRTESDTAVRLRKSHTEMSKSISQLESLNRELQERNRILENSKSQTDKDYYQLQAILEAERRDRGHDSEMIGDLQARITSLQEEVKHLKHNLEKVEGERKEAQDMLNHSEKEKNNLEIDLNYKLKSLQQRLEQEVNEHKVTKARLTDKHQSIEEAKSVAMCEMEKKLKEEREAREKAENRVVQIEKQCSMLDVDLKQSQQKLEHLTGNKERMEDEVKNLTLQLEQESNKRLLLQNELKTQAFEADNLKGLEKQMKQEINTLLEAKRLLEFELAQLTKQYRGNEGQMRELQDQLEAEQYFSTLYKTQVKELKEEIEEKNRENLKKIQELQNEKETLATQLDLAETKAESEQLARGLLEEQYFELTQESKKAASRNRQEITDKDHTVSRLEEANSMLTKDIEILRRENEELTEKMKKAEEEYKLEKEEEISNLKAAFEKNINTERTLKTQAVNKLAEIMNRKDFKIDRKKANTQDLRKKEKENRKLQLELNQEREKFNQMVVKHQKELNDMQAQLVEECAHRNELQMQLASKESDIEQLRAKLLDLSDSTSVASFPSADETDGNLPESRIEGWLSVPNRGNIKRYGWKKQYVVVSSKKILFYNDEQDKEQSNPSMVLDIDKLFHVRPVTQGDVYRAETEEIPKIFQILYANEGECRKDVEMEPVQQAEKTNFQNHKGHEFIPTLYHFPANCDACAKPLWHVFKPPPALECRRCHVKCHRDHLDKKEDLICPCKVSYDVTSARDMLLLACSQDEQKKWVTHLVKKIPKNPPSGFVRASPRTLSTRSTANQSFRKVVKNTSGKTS
T1 sequence (Q13464 1-477): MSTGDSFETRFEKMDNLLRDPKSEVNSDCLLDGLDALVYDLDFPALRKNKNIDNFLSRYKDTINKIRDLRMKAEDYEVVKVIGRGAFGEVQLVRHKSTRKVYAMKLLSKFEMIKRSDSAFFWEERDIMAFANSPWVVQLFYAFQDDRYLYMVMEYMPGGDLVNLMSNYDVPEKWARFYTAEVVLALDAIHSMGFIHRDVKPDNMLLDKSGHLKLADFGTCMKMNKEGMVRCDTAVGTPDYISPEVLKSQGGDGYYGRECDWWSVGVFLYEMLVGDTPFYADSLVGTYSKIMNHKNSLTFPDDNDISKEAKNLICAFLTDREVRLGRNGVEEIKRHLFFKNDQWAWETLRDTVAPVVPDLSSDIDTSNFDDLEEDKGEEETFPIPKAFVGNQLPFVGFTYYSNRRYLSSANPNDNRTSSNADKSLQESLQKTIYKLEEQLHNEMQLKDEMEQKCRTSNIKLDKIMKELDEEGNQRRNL

Row | Compound | IC50 ([1]; isolated enzyme assay) [µM] | IC50 ([2]; isolated enzyme assay) [µM] | IC50 (ROCK2; class symbols) [µM] | IC50 (ROCK2; numeric bound) [µM] | also measured
1 | Cn1nccc1C(=O)Nc1cccc(-c2nsc(Nc3ccc4[nH]ncc4c3Cl)n2)c1 [Compound A-3] | – | – | – | – | IC50 ([1]; isolated enzyme): < 1 µM; IC50 ([2]; isolated enzyme): < 1 µM; IC50 (ROCK1; [3]): 1 to 15 µM; IC50 (ROCK2; [3]): < 1 µM
2 | Cc1ccncc1C(=O)Nc1cccc(-c2nsc(Nc3ccc4[nH]ncc4c3Cl)n2)c1 [Compound A-4] | – | – | – | – | IC50 ([1]; isolated enzyme): > 30 µM; IC50 ([2]; isolated enzyme): < 1 µM; IC50 (ROCK1; [3]): 1 to 15 µM; IC50 (ROCK2; [3]): < 1 µM
3 | O=C(Nc1cccc(-c2nsc(Nc3ccc4[nH]ncc4c3Cl)n2)c1)c1cncs1 [Compound A-16] | – | – | – | – | IC50 ([1]; isolated enzyme): < 1 µM; IC50 ([2]; isolated enzyme): < 1 µM; IC50 (ROCK2; [3]): < 1 µM
4 | O=C(Nc1cccc(-c2nsc(Nc3ccc4[nH]ncc4c3Cl)n2)c1)c1cnco1 [Compound A-17] | – | – | – | – | IC50 ([1]; isolated enzyme): < 1 µM; IC50 ([2]; isolated enzyme): < 1 µM; IC50 (ROCK2; [3]): < 1 µM
5 | Cc1cc(C(=O)Nc2cccc(-c3nsc(Nc4ccc5[nH]ncc5c4Cl)n3)c2)on1 [Compound A-18] | – | – | – | – | IC50 ([1]; isolated enzyme): < 1 µM; IC50 ([2]; isolated enzyme): < 1 µM; IC50 (ROCK2; [3]): < 1 µM
6 | O=C(Nc1cc(-c2nsc(Nc3ccc4[nH]ncc4c3Cl)n2)ccn1)N1CCOCC1 [Compound A-19] | – | – | – | – | IC50 ([1]; isolated enzyme): < 1 µM; IC50 ([2]; isolated enzyme): < 1 µM; IC50 (ROCK2; [3]): < 1 µM
7 | Cn1cc(CC(=O)Nc2cccc(-c3nsc(Nc4ccc5[nH]ncc5c4Cl)n3)c2)cn1 [Compound A-20] | – | – | – | – | IC50 ([1]; isolated enzyme): < 1 µM; IC50 ([2]; isolated enzyme): < 1 µM; IC50 (ROCK2; [3]): < 1 µM
8 | O=C(Nc1cccc(-c2nsc(Nc3ccc4[nH]ncc4c3Cl)n2)c1)c1cocn1 [Compound A-21] | – | – | – | – | IC50 ([1]; isolated enzyme): < 1 µM; IC50 ([2]; isolated enzyme): < 1 µM; IC50 (ROCK2; [3]): < 1 µM
9 | Cn1cnc(C(=O)Nc2cccc(-c3nsc(Nc4ccc5[nH]ncc5c4Cl)n3)c2)c1 [Compound A-22] | – | – | – | – | IC50 ([1]; isolated enzyme): < 1 µM; IC50 ([2]; isolated enzyme): < 1 µM; IC50 (ROCK2; [3]): < 1 µM
10 | Cn1cncc1C(=O)Nc1cccc(-c2nsc(Nc3ccc4[nH]ncc4c3Cl)n2)c1 [Compound A-23] | – | – | – | – | IC50 ([1]; isolated enzyme): < 1 µM; IC50 ([2]; isolated enzyme): < 1 µM; IC50 (ROCK2; [3]): < 1 µM
11 | CNC(=O)c1cc(-c2nsc(Nc3ccc4[nH]ncc4c3Cl)n2)cn(C)c1=O [IV-2] | < 1 | < 1 | < 1 | – | IC50 (ROCK1; numeric bound): > 10 µM
12 | CCCOC(=O)Nc1cc(-c2nsc(Nc3ccc4[nH]ncc4c3Cl)n2)cn(C)c1=O [IV-5] | < 1 | < 1 | < 1 | – | IC50 (ROCK1; class symbols): 1 to 15 µM
13 | Cc1cc(NC(=O)c2cncs2)cc(-c2nsc(Nc3ccc4[nH]ncc4c3Cl)n2)n1 [IV-20] | < 1 | < 1 | – | > 10 | –
14 | O=C(NC(CO)CO)c1cc(-c2nsc(Nc3ccc4[nH]ncc4c3Cl)n2)ccc1F [IV-21] | < 1 | < 1 | 1 to 15 | – | –
15 | O=C(Nc1cncc(-c2nsc(Nc3ccc4[nH]ncc4c3Cl)n2)c1)c1cnco1 [IV-24] | > 30 | < 1 | – | > 10 | –
16 | Cc1cc(NC(=O)c2cnco2)cc(-c2nsc(Nc3ccc4[nH]ncc4c3Cl)n2)n1 [IV-25] | < 1 | < 1 | – | > 10 | –
17 | COc1ncc(C(=O)Nc2cc(-c3nsc(Nc4ccc5[nH]ncc5c4Cl)n3)ccn2)cn1 [IV-27] | > 30 | < 1 | – | > 10 | –
18 | O=C(Nc1cc(-c2nsc(Nc3ccc4[nH]ncc4c3Cl)n2)ccn1)c1cnco1 [IV-28] | > 30 | < 1 | – | > 10 | –
19 | Cn1cnc(C(=O)Nc2cc(-c3nsc(Nc4ccc5[nH]ncc5c4Cl)n3)ccn2)c1 [IV-29] | > 30 | < 1 | – | > 10 | –
20 | O=C(NC1CCC1)c1cc(-c2nsc(Nc3ccc4[nH]ncc4c3Cl)n2)ccc1F [IV-30] | < 1 | < 1 | < 1 | – | –

Row | Compound | IC50 ([1]; isolated enzyme assay) [µM] | IC50 ([2]; isolated enzyme assay) [µM] | IC50 (ROCK2; class symbols) [µM] | IC50 (ROCK2; numeric bound) [µM] | also measured
21 | Cn1nccc1C(=O)Nc1cccc(-c2nsc(Nc3ccc4[nH]ncc4c3C#N)n2)c1 [IV-33] | < 1 | < 1 | – | > 10 | –
22 | CC1(C)CN(c2cccc(-c3nsc(Nc4ccc5[nH]ncc5c4C#N)n3)c2)C(=O)O1 [IV-34] | < 1 | < 1 | 1 to 15 | – | –
23 | Cn1cc(-c2nsc(Nc3ccc4[nH]ncc4c3Cl)n2)cc(NC(=O)c2ccccc2)c1=O [IV-39] | 1 to 15 | < 1 | < 1 | – | –
24 | COc1ccc(C(=O)Nc2cc(C)nc(-c3nsc(Nc4ccc5[nH]ncc5c4Cl)n3)c2)cc1 [IV-43] | > 30 | > 30 | 1 to 15 | – | –
25 | COc1cccc(C(=O)Nc2cc(C)nc(-c3nsc(Nc4ccc5[nH]ncc5c4Cl)n3)c2)c1 [IV-44] | > 30 | > 30 | 1 to 15 | – | –
26 | CC(=O)Nc1cc(-c2nsc(Nc3ccc4[nH]ncc4c3Cl)n2)cn(C)c1=O [IV-45] | < 1 | < 1 | – | > 10 | –
27 | O=C(Nc1cc(-c2nsc(Nc3ccc4[nH]ncc4c3Cl)n2)ccn1)c1ccccc1F [IV-60] | > 30 | > 30 | 1 to 15 | – | –
28 | COc1cccc(C(=O)Nc2cc(-c3nsc(Nc4ccc5[nH]ncc5c4Cl)n3)ccn2)c1 [IV-64] | > 30 | > 30 | < 1 | – | –
29 | Cc1coc(-c2cc(CO)cc(-c3nsc(Nc4ccc5[nH]ncc5c4Cl)n3)c2)n1 [IV-68] | < 1 | < 1 | < 1 | – | –
30 | Cc1ncc(-c2nsc(Nc3ccc4[nH]ncc4c3Cl)n2)cc1NC(=O)c1ccnn1C [IV-69] | 1 to 15 | < 1 | – | > 10 | –
31 | O=C(Nc1cccc(-c2nsc(Nc3ccc4[nH]ncc4c3Cl)n2)c1)c1nc(O)co1 [IV-79] | < 1 | < 1 | – | > 10 | –
32 | Cn1ccnc1-c1cccc(-c2nsc(Nc3ccc4[nH]ncc4c3Cl)n2)c1 [IV-88] | < 1 | < 1 | 1 to 15 | – | –
33 | Cc1cn2cccc(-c3nsc(Nc4ccc5[nH]ncc5c4Cl)n3)c2n1 [IV-89] | < 1 | < 1 | – | > 10 | –
34 | Cc1coc(-c2cncc(-c3nsc(Nc4ccc5[nH]ncc5c4Cl)n3)c2)n1 [IV-97] | > 30 | > 30 | – | > 10 | –
35 | COc1cccc(C(=O)Nc2cncc(-c3nsc(Nc4ccc5[nH]ncc5c4Cl)n3)c2)c1 [IV-101] | > 30 | > 30 | – | > 10 | –
36 | Cc1cnc(-c2cncc(-c3nsc(Nc4ccc5[nH]ncc5c4Cl)n3)c2)o1 [IV-103] | > 30 | > 30 | – | > 10 | –
37 | Cc1cc(-c2nc(C)co2)cc(-c2nsc(Nc3ccc4[nH]ncc4c3Cl)n2)n1 [IV-105] | > 30 | > 30 | – | > 10 | –
38 | COc1ncc(-c2nsc(Nc3ccc4[nH]ncc4c3Cl)n2)cc1NC(=O)c1ccnn1C [IV-106] | > 30 | > 30 | – | > 10 | –
39 | COc1ccc(C(=O)Nc2cc(-c3nsc(Nc4ccc5[nH]ncc5c4Cl)n3)ccn2)cc1 [IV-108] | > 30 | < 1 | 1 to 15 | – | –

Reference: US10556898B2, “Indazolyl-1,2,4-thiadiazolamines and related compounds for inhibition of Rho-associated protein kinase and the treatment of disease” (Lycera Corporation, priority 2016, dated 2020)
